PubChem BioAssay (NCI)
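GI50: concentration for 50% inhibition of growth. The concentration for full growth arrest is given as TGI.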

Tests used:
Assay in all cases: NCI-60 cell line screen, 384-well format
786-0 renal = tested on: 786-0 renal
A498 renal = tested on: A498 renal
A549 NSCLC = tested on: A549 NSCLC
ACHN renal = tested on: ACHN renal
BT-549 breast = tested on: BT-549 breast
CAKI-1 renal = tested on: CAKI-1 renal
CCRF-CEM leukemia = tested on: CCRF-CEM leukemia
COLO 205 colon = tested on: COLO 205 colon
DU-145 prostate = tested on: DU-145 prostate
EKVX NSCLC = tested on: EKVX NSCLC
HCC-2998 colon = tested on: HCC-2998 colon
HCT-116 colon = tested on: HCT-116 colon
HCT-15 colon = tested on: HCT-15 colon
HL-60(TB) leukemia = tested on: HL-60(TB) leukemia
HOP-62 NSCLC = tested on: HOP-62 NSCLC
HOP-92 NSCLC = tested on: HOP-92 NSCLC
HS 578T breast = tested on: HS 578T breast
HT29 colon = tested on: HT29 colon
IGROV1 ovarian = tested on: IGROV1 ovarian
K-562 leukemia = tested on: K-562 leukemia
KM12 colon = tested on: KM12 colon
LOX IMVI melanoma = tested on: LOX IMVI melanoma
M14 melanoma = tested on: M14 melanoma
MALME-3M melanoma = tested on: MALME-3M melanoma
MCF7 breast = tested on: MCF7 breast
MDA-MB-231 breast = tested on: MDA-MB-231 breast
MDA-MB-435 melanoma = tested on: MDA-MB-435 melanoma
MDA-MB-468 breast = tested on: MDA-MB-468 breast
MOLT-4 leukemia = tested on: MOLT-4 leukemia
NCI-H226 lung = tested on: NCI-H226 lung
NCI-H23 lung = tested on: NCI-H23 lung
NCI-H322M lung = tested on: NCI-H322M lung
NCI-H460 NSCLC = tested on: NCI-H460 NSCLC
NCI-H522 lung = tested on: NCI-H522 lung
NCI/ADR-RES ovarian = tested on: NCI/ADR-RES ovarian
OVCAR-3 ovarian = tested on: OVCAR-3 ovarian
OVCAR-4 ovarian = tested on: OVCAR-4 ovarian
OVCAR-5 ovarian = tested on: OVCAR-5 ovarian
OVCAR-8 ovarian = tested on: OVCAR-8 ovarian
PC-3 prostate = tested on: PC-3 prostate
RPMI-8226 leukemia = tested on: RPMI-8226 leukemia
RXF 393 renal = tested on: RXF 393 renal
SF-268 CNS = tested on: SF-268 CNS
SF-295 CNS = tested on: SF-295 CNS
SF-539 CNS = tested on: SF-539 CNS
SK-MEL-28 melanoma = tested on: SK-MEL-28 melanoma
SK-MEL-5 melanoma = tested on: SK-MEL-5 melanoma
SK-OV-3 ovarian = tested on: SK-OV-3 ovarian
SN12C renal = tested on: SN12C renal
SNB-19 CNS = tested on: SNB-19 CNS
SNB-75 CNS = tested on: SNB-75 CNS
SR leukemia = tested on: SR leukemia
SW-620 colon = tested on: SW-620 colon
T-47D breast = tested on: T-47D breast
TK-10 renal = tested on: TK-10 renal
U251 glioblastoma = tested on: U251 glioblastoma
UACC-257 melanoma = tested on: UACC-257 melanoma
UO-31 renal = tested on: UO-31 renal

Structure (SMILES): O=C(N[C@@H](Cc1coc2ccccc12)B(O)O)[C@@H]1C[C@H]2CC[C@@H]1O2
- GI50 ([…]-0 renal): 2.74 µM
- TGI (786-0 renal): 13.9 µM
- GI50 (A498 renal): 1.62 µM
- TGI (A498 renal): 5.91 µM
- GI50 (A549 NSCLC): 10.7 µM
- TGI (A549 NSCLC): > 100 µM
- GI50 (ACHN renal): 1.09 µM
- TGI (ACHN renal): > 100 µM
- GI50 (BT-549 breast): 2.26 µM
- TGI (BT-549 breast): 5.49 µM
- GI50 (CAKI-1 renal): 3.24 µM
- TGI (CAKI-1 renal): > 100 µM
- GI50 (CCRF-CEM leukemia): 0.197 µM
- TGI (CCRF-CEM leukemia): 0.504 µM
- GI50 (COLO 205 colon): 21.2 µM
- TGI (COLO 205 colon): > 100 µM
- GI50 (DU-145 prostate): 4.28 µM
- TGI (DU-145 prostate): > 100 µM
- GI50 (EKVX NSCLC): 6.89 µM
- TGI (EKVX NSCLC): 91.9 µM
- GI50 (HCC-2998 colon): 4.45 µM
- TGI (HCC-2998 colon): 20.9 µM
- GI50 (HCT-116 colon): 2.08 µM
- TGI (HCT-116 colon): 8.46 µM
- GI50 (HCT-15 colon): 4.26 µM
- TGI (HCT-15 colon): 15.3 µM
- GI50 (HL-60(TB) leukemia): 0.355 µM
- TGI (HL-60(TB) leukemia): 1.36 µM
- GI50 (HOP-62 NSCLC): 3.87 µM
- TGI (HOP-62 NSCLC): 17.1 µM
- GI50 (HOP-92 NSCLC): 13.9 µM
- TGI (HOP-92 NSCLC): 77.7 µM
- GI50 (HS 578T breast): 1.8 µM
- TGI (HS 578T breast): 3.69 µM
- GI50 (HT29 colon): 1.83 µM
- TGI (HT29 colon): 4.44 µM
- GI50 (IGROV1 ovarian): 18.6 µM
- TGI (IGROV1 ovarian): 92.1 µM
- GI50 (K-562 leukemia): 7.21 µM
- TGI (K-562 leukemia): > 100 µM
- GI50 (KM12 colon): 5.64 µM
- TGI (KM12 colon): 23.2 µM
- GI50 (LOX IMVI melanoma): 3.99 µM
- TGI (LOX IMVI melanoma): 16.8 µM
- GI50 (M14 melanoma): 2.73 µM
- TGI (M14 melanoma): 9.07 µM
- GI50 (MALME-3M melanoma): 1.17 µM
- TGI (MALME-3M melanoma): 3.19 µM
- GI50 (MCF7 breast): 1.68 µM
- TGI (MCF7 breast): > 100 µM
- GI50 (MDA-MB-231 breast): 4.86 µM
- TGI (MDA-MB-231 breast): 23.3 µM
- GI50 (MDA-MB-435 melanoma): 1.45 µM
- TGI (MDA-MB-435 melanoma): 2.99 µM
- GI50 (MDA-MB-468 breast): 2.29 µM
- TGI (MDA-MB-468 breast): 9.43 µM
- GI50 (MOLT-4 leukemia): 0.277 µM
- TGI (MOLT-4 leukemia): 1.13 µM
- GI50 (NCI-H226 lung): 0.163 µM
- TGI (NCI-H226 lung): 0.439 µM
- GI50 (NCI-H23 lung): 3.7 µM
- TGI (NCI-H23 lung): 27.3 µM
- GI50 (NCI-H322M lung): 44.8 µM
- TGI (NCI-H322M lung): > 100 µM
- GI50 (NCI-H460 NSCLC): 16.7 µM
- TGI (NCI-H460 NSCLC): > 100 µM
- GI50 (NCI-H522 lung): 2 µM
- TGI (NCI-H522 lung): 4.74 µM
- GI50 (NCI/ADR-RES ovarian): 34.8 µM
- TGI (NCI/ADR-RES ovarian): > 100 µM
- GI50 (OVCAR-3 ovarian): 1.38 µM
- TGI (OVCAR-3 ovarian): 3.8 µM
- GI50 (OVCAR-4 ovarian): 7.3 µM
- TGI (OVCAR-4 ovarian): 60.6 µM
- GI50 (OVCAR-5 ovarian): 8.44 µM
- TGI (OVCAR-5 ovarian): > 100 µM
- GI50 (OVCAR-8 ovarian): 30.9 µM
- TGI (OVCAR-8 ovarian): > 100 µM
- GI50 (PC-3 prostate): 27.6 µM
- TGI (PC-3 prostate): > 100 µM
- GI50 (RPMI-8226 leukemia): 0.173 µM
- TGI (RPMI-8226 leukemia): 0.359 µM
- GI50 (RXF 393 renal): 1.22 µM
- TGI (RXF 393 renal): 2.91 µM
- GI50 (SF-268 CNS): 2.45 µM
- TGI (SF-268 CNS): 7.43 µM
- GI50 (SF-295 CNS): 1.49 µM
- TGI (SF-295 CNS): 4.35 µM
- GI50 (SF-539 CNS): 1.51 µM
- TGI (SF-539 CNS): 2.92 µM
- GI50 (SK-MEL-28 melanoma): 1.33 µM
- TGI (SK-MEL-28 melanoma): 4.17 µM
- GI50 (SK-MEL-5 melanoma): 2.36 µM
- TGI (SK-MEL-5 melanoma): 7.59 µM
- GI50 (SK-OV-3 ovarian): 4.71 µM
- TGI (SK-OV-3 ovarian): 55.7 µM
- GI50 (SN12C renal): 10.7 µM
- TGI (SN12C renal): > 100 µM
- GI50 (SNB-19 CNS): 4.7 µM
- TGI (SNB-19 CNS): 23.1 µM
- GI50 (SNB-75 CNS): 2.99 µM
- TGI (SNB-75 CNS): 11.2 µM
- GI50 (SR leukemia): 0.219 µM
- TGI (SR leukemia): 0.605 µM
- GI50 (SW-620 colon): 1.81 µM
- TGI (SW-620 colon): 3.83 µM
- GI50 (T-47D breast): 5.11 µM
- TGI (T-47D breast): 45.8 µM
- GI50 (TK-10 renal): 1.84 µM
- TGI (TK-10 renal): 4.86 µM
- GI50 (U251 glioblastoma): 14.8 µM
- TGI (U251 glioblastoma): 52.5 µM
- GI50 (UACC-257 melanoma): 1.44 µM
- TGI (UACC-257 melanoma): 5.25 µM
- GI50 (UO-31 renal): 3.36 µM
- TGI (UO-31 renal): 13.4 µM
